Reference: patent US6391847B1, “Method, polypeptides, nucleotide sequence of XOR-6, a vitamin D-like receptor from xenopus” (The Salk Institute for Biological Studies, priority 1995, dated 2002)

How the values were obtained:
XOR-6 = assay: cotransfection assay, activation of XOR-6 in transfected CV-1 cells; type: cell-based, Xenopus laevis; conditions: for activation of XOR-6 (agonist activity in the cotransfection assay): transfected CV-1 cells; for rank order potency of XOR-6 activation, ortho/meta/para amino ethyl benzoates: cotransfection assay
Protocol: A search for the XOR-6 ligand was instituted based on the presumption that the receptor and its ligand must be co-expressed at some time during development. Accordingly, an unbiased, bioassay directed screen for XOR-6 agonists was undertaken in HPLC fractionated organic extracts derived from a mixture of developmental stages. Total lipid extracts from a mixture of embryonic stages from fertilized eggs through swimming tadpoles were prepared and tested for the ability to activate both GAL-XOR6 or full-length XOR-6 in transfected CV-1 cells.
The total extract was partitioned between iso-octane and MeOH and again tested for bioactivity.
A suitable eukaryotic expression vector for use herein was constructed from the commercially available vector pCDNAI-AMP (Invitrogen). This vector allows expression from the strong cytomegalovirus early promoter, and bacteriophage T7 and SP6 promoter-driven production of sense and antisense RNA, respectively.
The cloning strategy employed was as follows: the three endogenous NcoI sites were removed by site directed mutagenesis, the polylinker region between XhoI and XbaI was removed by double digestion, endfilling and self ligation. […] The resulting plasmid, designated pCDG1, can be linearized with NotI to produce mRNA from the bacteriophage T7 promoter. The XOR-6 protein coding region was cloned between the NcoI and BamHI sites of pCDG1 and designated pCDG-XOR6.
(§1) CV-1 cells were maintained in DMEM containing 10% resin-charcoal stripped fetal bovine serum. Liposome-mediated transient transfections were performed using DOTAP reagent (Boehringer Manheim) at a concentration of 5 μg/ml in Opti-MEM (Gibco). After 12-18 hours, the cells were washed and fresh DMEM-10% serum was added, including receptor agonists if required. After a further 48 hour incubation, the cells were lysed and luciferase reporter gene assays and β-galactosidase transfection control assays performed. Reporter gene expression is normalized to the β-galactosidase transfection control and expressed as relative light units per O.D. per minute of β-galactosidase activity.

GAL-XOR-6 = assay: cotransfection assay, activation of GAL-XOR6 in CV-1 cells; type: cell-based, Xenopus laevis; conditions: for rank order potency of activation, esters differing in alkyl length (FIG. 3): 10^−6M of each compound; for activation of GAL-XOR-6 by agonist cocktail: cocktail: thyroid hormone 10^−7M, vitamin D3 10^−7M, all-trans RA 10^−6M, WY-14,643 5×10^−6M
Protocol: FIG. 3 illustrates the activation of XOR-6 by a variety of amino benzoate derivatives. Thus, 10^−6M of each compound was tested in the co-transfection assay for its ability to activate GAL-XOR6.
It can be concluded, therefore, that XOR-6 defines a novel RXR-dependent, ligand-mediated signalling pathway.
pCMX-GAL4-XOR6 was constructed by cloning nucleotides encoding amino acids 103 to 386 of XOR-6 into the SalI to XbaI sites of pCMX-GAL4 (see U.S. Ser. No. 08/177,740).
as §1

xRXRα = target: T1, xRXRα (Xenopus laevis, UniProt P51128); assay: protease protection assay (ligand binding), parallel experiment; conditions: parallel experiment with xRXRα
T1 construct: made in house; host or cells: coupled in vitro transcription/translation (TNT, Promega)
T1 sequence (P51128 1-488): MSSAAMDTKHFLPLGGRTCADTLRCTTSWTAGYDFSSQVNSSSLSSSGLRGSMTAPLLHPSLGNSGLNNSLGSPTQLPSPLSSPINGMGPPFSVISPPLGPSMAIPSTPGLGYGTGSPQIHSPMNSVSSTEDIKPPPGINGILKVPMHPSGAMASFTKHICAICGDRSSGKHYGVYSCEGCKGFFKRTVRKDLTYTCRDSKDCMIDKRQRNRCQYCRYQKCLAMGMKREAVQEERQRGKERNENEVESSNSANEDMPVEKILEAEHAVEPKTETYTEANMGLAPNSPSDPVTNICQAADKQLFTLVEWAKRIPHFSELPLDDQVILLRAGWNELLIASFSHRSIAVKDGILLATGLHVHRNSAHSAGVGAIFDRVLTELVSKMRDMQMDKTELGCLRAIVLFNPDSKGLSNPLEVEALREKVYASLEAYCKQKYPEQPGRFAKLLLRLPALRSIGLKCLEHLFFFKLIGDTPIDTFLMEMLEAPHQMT
Description: Biol. 14:287-298 (1994) was utilized.

XOR6:xRXRα heterodimer = assay: co-transfection experiments, responsiveness of heterodimer to two ligands; type: cell-based, Xenopus laevis; conditions: receptor dependent manner
Protocol: Receptors were transfected into cells and incubated with the indicated concentrations of agonists.
A potentially significant property of the XOR6:xRXRα heterodimer is its responsiveness to two ligands. […] This synergism occurs at several dilutions of the XOR-6 agonist and concentrations of 9-cis RA (see FIG. 4). […] Such complexes would be ideal candidates for responding to combinations of graded morphogenetic signals during development.
as §1

βRARE = assay: interference of XOR-6 overexpression with retinoic acid signalling through βRARE in CV-1 cells; type: cell-based; conditions: 1 μg expression plasmid co-transfected into CV-1 cells with 5 μg tk-β REx2-luc, all-trans retinoic acid
Protocol: 1 μg of XOR-6 expression plasmid was co-transfected into CV-1 cells with 5 μg of tk-β REx2-luc, and challenged with the indicated concentrations of all-trans retinoic acid.
Because XOR-6:RXR heterodimers bind well to a retinoic acid response element, βRARE, it was tested whether overexpression of XOR-6 could influence retinoic acid signalling through this element. […] This effect was strongest with full-length XOR-6 (24% of wild-type activity) but still detectable with GAL-XOR-6 (44% of wild-type activity).
as §1

Question: With `CCOC(=O)c1cccc(N)c1` [3-AEB] as the molecule, how does the “specificity of activation among an extensive collection of vertebrate nuclear receptors” value (XOR-6) read?
Answer: specifically activates XOR-6 alone

Question: And the “activation of XOR-6 (agonist activity in the cotransfection assay)” value (XOR-6)?
Answer: potent agonist

Question: What about the “activation of XOR-6 (agonist activity in the cotransfection assay)” value (XOR-6; listed as meta amino ethyl benzoate) of the same molecule?
Answer: activated

Question: And the “rank order potency of activation, esters differing in alkyl length (FIG. 3)” value (GAL-XOR-6)?
Answer: 4-amino-butyl benzoate>3-amino-ethyl benzoate>4-amino-ethyl benzoate>>4-amino methyl benzoate

Question: What about the “protection from trypsin cleavage” value (xRXRα) of the same molecule?
Answer: not seen

Question: With `Cc1cccc(Nc2cc(Cl)nc(SCC(=O)O)n2)c1C` [WY-14,643, reference compound] as the molecule, how does the “activation of GAL-XOR-6 by agonist cocktail” value (GAL-XOR-6) read?
Answer: not activated

Question: With `COC(=O)c1ccc(N)cc1` [4-amino methyl benzoate] as the molecule, how does the “rank order potency of activation, esters differing in alkyl length (FIG. 3)” value (GAL-XOR-6) read?
Answer: 4-amino-butyl benzoate>3-amino-ethyl benzoate>4-amino-ethyl benzoate>>4-amino methyl benzoate

Question: Which “activation of XOR-6 (agonist activity in the cotransfection assay)” value (XOR-6) does the source give for `Nc1ccccc1C(=O)O` [2-amino benzoic acid, reference compound] here?
Answer: not possible, however, to demonstrate XOR-6 activation

Question: For `CC1=C(/C=C/C(C)=C\C=C\C(C)=C\C(=O)O)C(C)(C)CCC1` [9-cis RA, 9-cis retinoic acid], which “stimulation of reporter gene expression” value (XOR6:xRXRα heterodimer) is on record?
Answer: stimulated reporter gene expression

Question: `Nc1cccc(C(=O)O)c1` [3-amino benzoic acid, reference compound] was tested. Which “activation of XOR-6 (agonist activity in the cotransfection assay)” value (XOR-6) did it give?
Answer: not possible, however, to demonstrate XOR-6 activation

Question: With `CCCCOC(=O)c1ccc(N)cc1` as the molecule, how does the “rank order potency of activation, esters differing in alkyl length (FIG. 3)” value (GAL-XOR-6) read?
Answer: 4-amino-butyl benzoate>3-amino-ethyl benzoate>4-amino-ethyl benzoate>>4-amino methyl benzoate

Question: For `Nc1ccc(C(=O)O)cc1` [4-amino benzoic acid, 4-amino-benzoic acid, reference compound], which “activation of XOR-6 (agonist activity in the cotransfection assay)” value (XOR-6) is on record?
Answer: not possible, however, to demonstrate XOR-6 activation

Question: How did the “activation of GAL-XOR-6 by agonist cocktail” value (GAL-XOR-6) turn out when `C=C1CC[C@H](O)C/C1=C/C=C1\CCC[C@]2(C)[C@@H]([C@H](C)CCCC(C)C)CC[C@@H]12` [vitamin D3, reference compound] was run?
Answer: not activated

Question: `CC1=C(/C=C/C(C)=C/C=C/C(C)=C/C(=O)O)C(C)(C)CCC1` [all-trans RA, all-trans retinoic acid, reference compound] was tested. Which “activation of GAL-XOR-6 by agonist cocktail” value (GAL-XOR-6) did it give?
Answer: not activated

Question: For `Nc1cccc(C(=O)O)c1O` [3-amino salicylic acid, reference compound], which “activation of XOR-6 (agonist activity in the cotransfection assay)” value (XOR-6) is on record?
Answer: not possible, however, to demonstrate XOR-6 activation

Question: How did the “activation of XOR-6 (agonist activity in the cotransfection assay)” value (XOR-6) turn out when `Nc1ccc(C(=O)O)c(O)c1` [4-amino salicylic acid, reference compound] was run?
Answer: not possible, however, to demonstrate XOR-6 activation

Question: Which “activation of GAL-XOR-6 by agonist cocktail” value (GAL-XOR-6) does the source give for `N[C@@H](Cc1cc(I)c(Oc2ccc(O)c(I)c2)c(I)c1)C(=O)O` [thyroid hormone, reference compound] here?
Answer: not activated

Question: Which results are given for `CCOC(=O)c1ccccc1N` [2-AEB]?
Answer: rank order potency of XOR-6 activation, ortho/meta/para amino ethyl benzoates (XOR-6): 3-AEB>4-AEB>>2-AEB; activation of XOR-6 (agonist activity in the cotransfection assay) (XOR-6): activated

Question: How did the “rank order potency of XOR-6 activation, ortho/meta/para amino ethyl benzoates” value (XOR-6) turn out when `CCOC(=O)c1ccc(N)cc1` [4-AEB, 4-amino-ethyl benzoate] was run?
Answer: 3-AEB>4-AEB>>2-AEB

Question: What about the “activation of XOR-6 (agonist activity in the cotransfection assay)” value (XOR-6) of the same molecule?
Answer: activated

Question: And the “rank order potency of activation, esters differing in alkyl length (FIG. 3)” value (GAL-XOR-6)?
Answer: 4-amino-butyl benzoate>3-amino-ethyl benzoate>4-amino-ethyl benzoate>>4-amino methyl benzoate

B1: full-length XOR-6: Xenopus Orphan Receptor 6, about 386 amino acids (SEQ ID NO:2), overexpressed from plasmid (protein)
chain: MWKVQETLVLEEEEEEEDASNSCGTGEDEDDGDPKICRACGDRATGYHFNAMTCEGCKGFFRRAVKRNLRLSCPFQNSCVINKSNRRHCQACRLKKCLDIGMRKELIMSDAAVEQRRALIKRKHKLTKLPPTPPGASLTPEQQHFLTQLVGAHTKTFDFNFTFSKNFRPIRRSSDPTQEPQATSSEAFLMLPHISDLVTYMIKGIISFAKMLPYFKSLDIEDQIALLKGSVAEVSVIRFNTVFNSDTNTWECGPFTYDTEDMFLAGFRQLFLEPLVRIHRMMRKLNVQSEEYAMMAALSIFASYRPGVCDWEKIQKLQEHIALTLKDFIDSQRPPSPQNRLLYPKIMECLTELRTVNDIHSKQLLEIWDIQPDATPLMREVFGSPE
Question: With B1 as the molecule, how does the “retinoic acid-responsiveness of βRARE promoter on co-expression” value (βRARE) read?
Answer: 24 % of wild-type activity

B2: GAL-XOR-6: GAL4 fusion with amino acids 103 to 386 of XOR-6 (pCMX-GAL4-XOR6) (protein)
chain: RKELIMSDAAVEQRRALIKRKHKLTKLPPTPPGASLTPEQQHFLTQLVGAHTKTFDFNFTFSKNFRPIRRSSDPTQEPQATSSEAFLMLPHISDLVTYMIKGIISFAKMLPYFKSLDIEDQIALLKGSVAEVSVIRFNTVFNSDTNTWECGPFTYDTEDMFLAGFRQLFLEPLVRIHRMMRKLNVQSEEYAMMAALSIFASYRPGVCDWEKIQKLQEHIALTLKDFIDSQRPPSPQNRLLYPKIMECLTELRTVNDIHSKQLLEIWDIQPDATPLMREVFGSPE
modifications: left off: large carriers
Question: With B2 as the molecule, how does the “retinoic acid-responsiveness of βRARE promoter on co-expression” value (βRARE) read?
Answer: 44 % of wild-type activity
